From ChEMBL document CHEMBL5223157, “Divergent reactivity of usnic acid and evaluation of its derivatives for antiproliferative activity against cancer cells” (Bioorg Med Chem, 2023)
≈ marks a conversion by molar mass, not a printed value. Calls of active or inactive are those of the source. The calls are words filed in the database; no cut-off is given here.

What was measured:
[1] = system: HeLa; assay: Antiproliferative activity against human HeLa cells assessed as reduction in cell viability measured at 48 hrs by MTT assay; format: functional, cell-based
[2] = system: HeLa; assay: Antiproliferative activity against human HeLa cells assessed as reduction in cell viability measured at 24 hrs by MTT assay; format: functional, cell-based
[3] = Half life in human liver microsomes; format: ADME, Microsome
[4] = Plasma protein binding in human relative to control; format: ADME, cell-free; conditions: read-out: PPB (converted)
[5] = Drug recovery in human plasma relative to control; format: ADME, cell-free
[6] = target: T1, CYP2C8 (Homo sapiens, UniProt P10632); assay: Inhibition of CYP2C8 in human liver microsomes at 10 uM relative to control; format: ADME, Microsome
T1 sequence (P10632 whole entry): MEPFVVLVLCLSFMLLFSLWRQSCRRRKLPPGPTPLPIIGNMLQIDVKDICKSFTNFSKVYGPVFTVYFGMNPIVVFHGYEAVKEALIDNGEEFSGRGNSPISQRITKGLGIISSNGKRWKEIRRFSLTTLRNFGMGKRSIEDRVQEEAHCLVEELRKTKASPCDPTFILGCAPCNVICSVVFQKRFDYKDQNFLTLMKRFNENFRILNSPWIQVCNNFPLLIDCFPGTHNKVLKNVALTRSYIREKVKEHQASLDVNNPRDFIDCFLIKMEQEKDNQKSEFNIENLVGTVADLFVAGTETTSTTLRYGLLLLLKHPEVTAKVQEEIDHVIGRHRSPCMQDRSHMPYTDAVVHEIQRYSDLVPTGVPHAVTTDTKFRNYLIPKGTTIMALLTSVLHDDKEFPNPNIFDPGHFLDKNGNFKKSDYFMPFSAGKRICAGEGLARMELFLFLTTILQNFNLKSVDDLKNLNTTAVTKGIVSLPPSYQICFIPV

[7] = Permeability across apical to basolateral side in human Caco-2 cells; format: ADME, cell-based; conditions: read-out: permeability
[8] = Aqueous solubility of the compound in simulated gastric fluid; format: ADME
[9] = Aqueous solubility of the compound in simulated intestinal fluid; format: ADME
[10] = Toxicity in nude mouse xenografted with human MCF7 cells assessed as side effects at 400 mg/kg, po; format: organism-based; conditions: in vivo
[11] = target: CYP3A (Homo sapiens, UniProt P08684+P20815+P24462+Q9HB55); assay: Inhibition of CYP3A in human liver microsomes at 10 uM relative to control; format: ADME, Microsome
[12] = Aqueous solubility of compound in PBS at pH 7.4; format: physicochemical
[13] = Permeability across basolateral to apical side in human Caco-2 cells; format: ADME, cell-based; conditions: read-out: permeability
[14] = Lipophilicity, logD of the compound; format: physicochemical; conditions: octanol/water
[15] = target: CYP2C19 (Homo sapiens, UniProt P33261); assay: Inhibition of CYP2C19 in human liver microsomes at 10 uM relative to control; format: ADME, Microsome
[16] = system: HDFa; assay: Antiproliferative activity against human HDFa cells assessed as reduction in cell viability measured at 48 hrs by MTT assay; format: functional, cell-based
[17] = target: T2, Cytochrome P450 2C8 (Homo sapiens, UniProt P10632); assay: Inhibition of CYP2C8 in human liver microsomes; format: ADME, Microsome
T2 sequence (P10632 whole entry): T1 sequence (P10632 whole entry)

[18] = target: Cytochrome P450 2C19 (Homo sapiens, UniProt P33261); assay: Inhibition of CYP2C19 in human liver microsomes; format: ADME, Microsome
[19] = target: CYP2C9 (Homo sapiens, UniProt P11712); assay: Inhibition of CYP2C9 in human liver microsomes at 10 uM relative to control; format: ADME, Microsome
[20] = target: Cytochrome P450 2C9 (Homo sapiens, UniProt P11712); assay: Inhibition of CYP2C9 in human liver microsomes; format: ADME, Microsome
Sequence of Cytochrome P450 2C9 (P11712 whole entry): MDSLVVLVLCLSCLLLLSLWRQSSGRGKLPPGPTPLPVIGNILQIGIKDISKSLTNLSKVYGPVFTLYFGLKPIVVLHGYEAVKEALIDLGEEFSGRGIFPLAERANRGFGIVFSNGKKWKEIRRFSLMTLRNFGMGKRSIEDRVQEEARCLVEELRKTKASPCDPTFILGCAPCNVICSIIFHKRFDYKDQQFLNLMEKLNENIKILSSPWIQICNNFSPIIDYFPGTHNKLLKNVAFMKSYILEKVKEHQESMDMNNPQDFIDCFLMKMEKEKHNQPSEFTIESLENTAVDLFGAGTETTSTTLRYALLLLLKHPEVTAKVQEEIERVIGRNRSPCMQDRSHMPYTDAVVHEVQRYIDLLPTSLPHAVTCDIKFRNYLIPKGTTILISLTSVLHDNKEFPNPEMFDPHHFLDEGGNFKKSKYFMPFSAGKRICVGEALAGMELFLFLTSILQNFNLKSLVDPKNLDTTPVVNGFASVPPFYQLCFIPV

Sequence of CYP2C19 (P33261 whole entry): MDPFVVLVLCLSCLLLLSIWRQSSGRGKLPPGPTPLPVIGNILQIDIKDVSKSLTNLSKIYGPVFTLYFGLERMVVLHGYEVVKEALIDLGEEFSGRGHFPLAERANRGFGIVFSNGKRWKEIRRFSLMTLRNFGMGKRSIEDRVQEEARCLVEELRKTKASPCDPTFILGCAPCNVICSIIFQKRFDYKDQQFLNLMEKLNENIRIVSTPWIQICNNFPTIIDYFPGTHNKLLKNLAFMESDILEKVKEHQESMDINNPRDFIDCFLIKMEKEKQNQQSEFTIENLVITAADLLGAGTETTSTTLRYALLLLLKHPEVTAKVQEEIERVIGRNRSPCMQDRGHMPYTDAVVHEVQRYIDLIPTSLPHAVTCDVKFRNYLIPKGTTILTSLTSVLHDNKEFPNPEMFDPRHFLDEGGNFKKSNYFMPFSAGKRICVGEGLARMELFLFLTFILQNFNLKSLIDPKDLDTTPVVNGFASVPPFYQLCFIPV
Sequence of Cytochrome P450 2C19 (P33261 whole entry): as above
Sequence of CYP2C9 (P11712 whole entry): as the sequence (P11712 whole entry) above

| IC50 [1] [µM] | IC50 [2] [µM] | SMILES | other results |
| --- | --- | --- | --- |
| > 15 | > 15 | CC(=O)c1c(O)c(C)c(O)c2c1O[C@@H]1Cc3n[nH]c(C)c3C(=O)[C@]21C | – |
| > 15 | > 15 | CC(=O)c1c(O)c(C)c(O)c2c1OC1=Cc3c(c(C)nn3CCO)C(=O)[C@@]12C | – |
| > 15 | > 15 | CC(=O)C1=C(O)C=C2Oc3c(C(C)=O)c(O)c(C)c(O)c3[C@@]2(C)C1=O [(+)-USNIC ACID] | half-life [3]: 79.3 min; fraction unbound [4]: 0.0024; Drug recovery [5]: 95% |
| 3.91 | > 15 | CC(=O)c1c(O)c(C)c(O)c2c1OC1=Cc3c(c(C)nn3C)C(=O)[C@@]12C | – |
| 2.21 | 7.15 | CC(=O)c1c(O)c(C)c(O)c2c1OC1=Cc3onc(C)c3C(=O)[C@@]12C | inhibition at 10 µM [6]: 8.5%; Papp A→B [7]: 2.2 ×10⁻⁶ cm/s; solubility [8]: 37.6 µM (≈ 12.8 µg/mL); solubility [9]: 1.6 µM (≈ 0.546 µg/mL); Activity [10]: Non-Toxic; inhibition at 10 µM [11]: 14.7%; solubility [12]: 0.2 µM (≈ 0.0683 µg/mL); Papp B→A [13]: 0.2 ×10⁻⁶ cm/s; logD [14]: 3.32; half-life [3]: 23 min; fraction unbound [4]: 0.06; inhibition at 10 µM [15]: 15.6%; Drug recovery [5]: 19% |
| 0.311 | 1.36 | CC(=O)c1c(O)c(C)c(O)c2c1OC1=Cc3[nH]nc(C)c3C(=O)[C@@]12C | Activity [16]: inactive |
| 0.116 | 0.928 | CC(=O)c1c(O)c(C)c(O)c2c1OC1=CC(=O)c3c(nn(C)c3C)[C@@]12C | Activity [16]: inactive |
| > 15 | > 15 | CC(=O)c1c(O)c(C)c(O)c2c1OC1=CC(=O)c3c(C)noc3[C@@]12C | – |
| > 15 | > 15 | CC(=O)c1c(O)c(C)c(O)c2c1O[C@@H]1Cc3n[nH]c(C)c3[C@H](O)[C@]21C | – |
| > 15 | > 15 | CC(=O)c1c(O)c(C)c(O)c2c1OC1=Cc3c(c(C)nn3CCBr)C(=O)[C@@]12C | – |
| 0.878 | 1.92 | CC(=O)c1c(O)c(C)c(O)c2c1OC1=CC(=O)c3c(n[nH]c3C)[C@@]12C | inhibition at 10 µM [6]: 52.6%; IC50 [17]: 1900 nM; Papp A→B [7]: 11.3 ×10⁻⁶ cm/s; solubility [8]: > 200 µM; solubility [9]: 11.5 µM (≈ 3.91 µg/mL); inhibition at 10 µM [11]: 51.3%; solubility [12]: 4 µM (≈ 1.36 µg/mL); Papp B→A [13]: 1.6 ×10⁻⁶ cm/s; Activity [16]: inactive; logD [14]: > 3.68; IC50 [18]: 9 nM; half-life [3]: > 60 min; fraction unbound [4]: 0.04; inhibition at 10 µM [19]: 74.6%; IC50 [20]: 94 nM; inhibition at 10 µM [15]: 65.9%; Drug recovery [5]: 19% |
| > 15 | > 15 | CC(=O)c1c(O)c(C)c(O)c2c1OC1=Cc3c(c(C)nn3C(C)(C)C)C(=O)[C@@]12C | – |
| > 15 | > 15 | CC(=O)c1c(O)c(C)c(O)c2c1OC1=CC(=O)c3c(C)nn(C)c3[C@@]12C | – |
| > 15 | > 15 | CC(=O)c1c(O)c(C)c(O)c2c1OC1=Cc3c(c(C)nn3-c3ccccn3)C(=O)[C@@]12C | – |
| 11 | > 15 | CCn1nc(C)c2c1C=C1Oc3c(C(C)=O)c(O)c(C)c(O)c3[C@@]1(C)C2=O | – |
| 8.65 | > 15 | CC(C)=N/N=C(\C)c1c(O)c(C)c(O)c2c1OC1=CC(=O)c3c(n[nH]c3C)[C@@]12C | – |
| > 15 | > 15 | CC(=O)c1c(O)c(C)c(O)c2c1OC1=CC(O)=C(/C(C)=N/N(C)C)C(=O)[C@@]12C | – |
| > 15 | > 15 | CC(=O)c1c(O)c(C)c(O)c2c1OC1=CC(O)=C(/C(C)=N/N)C(=O)[C@@]12C | – |

| SMILES | IC50 [1] [µM] | IC50 [2] [µM] | other results |
| --- | --- | --- | --- |
| COc1cccc2c1C(=O)c1c(O)c3c(c(O)c1C2=O)C[C@@](O)(C(=O)CO)C[C@@H]3O[C@H]1C[C@H](N)[C@H](O)[C@H](C)O1 [DOXORUBICIN] | 0.429 | 3.33 | – |
